Tested on: AGR2 mRNA
Assay: Promoting action of humectant on AGR2 gene expression level in normal human epidermal cells (Real-Time PCR)
Format: cell-based
Settings: NHEK, 72 hour culture; for AGR2 expression compared to that in the control: result in words; for AGR2 expression level (relative value): normalized with RPLP0, control (99.5% EtOH solvent) = 1, n=2
Description: The normal human epidermal cells (NHEK) were cultured under conditions of 37° C. and 5% CO2 using EpiLife (Registered Trademark) (purchased from Kurabo). The cells were seeded in a 12 well plate at 1×10^5 cells and cultured for 48 hours, and the medium was then exchanged with a serum-free medium. Further, vitamin D3, which is a known agent for ameliorating dry skin, (99.5% ethanol solution, final concentration 1 nM or 10 nM) (Nutrients, 4(9):1213-8, 2012), eucalyptus extract (50% ethanol solution, final concentration 0.001%) (J Cosmet Dermatol, 12(1):3-11, 2013), macrocarpal, which is a major physiologically active substance of eucalyptus extract (50% ethanol solution, final concentration 10 nM) (Int J Cosmet Sci, 34(1):17-22, 2012), or 99.5% ethanol or 50% ethanol as a control was added to the medium. After 72 hour culture, total RNA was extracted from cells using RNeasy (Registered Trademark) Mini Kit (QIAGEN). The concentration of total RNA was measured and a reverse transcription reaction was carried out using a constant amount of total RNA. High capacity RNA-to-cDNA kit (Applied Biosystems) was used for the reverse transcription reaction. The expression of AGR2 mRNA was quantitatively determined from the obtained cDNA by Real-Time PCR. Taqman (Registered Trademark) Probe (AGR2: Hs00180702_m1, Applied Biosystems) was used for quantitative determination, and PRISM 7500 (Applied Biosystems) was used for detection and quantitative determination. PCR was carried out in a 20 μL reaction system and the amplification conditions were a denaturation reaction at 95° C. for 15 seconds, annealing at 60° C. for a minute and an elongation reaction. The mRNA expression level was normalized with the expression level of RPLP0 (Hs99999902_m1, Applied Biosystems) and shown as a relative value in the case where the mean expression level of AGR2 in a control (only 99.5% EtOH solvent) was considered as 1.

| Compound | AGR2 expression compared to that in the control | AGR2 expression level (relative value) (final concentration 1 nM) | AGR2 expression level (relative value) (final concentration 10 nM) |
| --- | --- | --- | --- |
| C=C1CC[C@H](O)C/C1=C/C=C1\CCC[C@]2(C)[C@@H]([C@H](C)CCCC(C)C)CC[C@@H]12 [Vitamin D3, vitamin D3] | increased | 1.05 | 1.17 |
| macrocarpal | increased |  | 1.17 |
